Measurements as given in patent US5750724A, “Indolealkyl derivatives of benzodioxanmethylamine” (American Home Products Corporation, priority 1996, dated 1998).
pIC50: −log10 of the molar value.

What was measured:
[1] = system: 5-HT1A receptors; conditions: European Journal of Pharmacology, 173 (1989), 189; cited from earlier work
[2] = molecular target: T1, dopamine D2 receptor (Rattus norvegicus, UniProt P61169); test: dopamine D2 receptor affinity, 3H-quinpirole, homogenized rat striatal brain tissue (modified Seemen and Schaus); assay type: binding
T1 construct: homogenized rat striatal brain tissue; from tissue; host or cells: rat striatum homogenate
Procedure: Affinity for the dopamine D2 receptor was established by a modification of the standard experimental test procedure of Seemen and Schaus, European Journal of Pharmacology 203: 105-109, 1991, wherein homogenized rat striatal brain tissue is incubated with ^3 H-quinpirole and various concentrations of test compound, filtered and washed and counted in a Betaplate scintillation counter.

[3] = molecular target: T2, 5-HT1A serotonin receptor (Rattus norvegicus, UniProt P19327); test: displacement of [3H] 8-OHDPAT (dipropylaminotetralin) from the 5-HT1A serotonin receptor (Hall et al.); assay type: binding; conditions: read-out: 5-HT1A Receptor Affinity IC50
T2 construct: following the procedure of Hall et al., J. Neurochem; 44, 1685 (1985); from tissue
T2 sequence (P19327 1-422): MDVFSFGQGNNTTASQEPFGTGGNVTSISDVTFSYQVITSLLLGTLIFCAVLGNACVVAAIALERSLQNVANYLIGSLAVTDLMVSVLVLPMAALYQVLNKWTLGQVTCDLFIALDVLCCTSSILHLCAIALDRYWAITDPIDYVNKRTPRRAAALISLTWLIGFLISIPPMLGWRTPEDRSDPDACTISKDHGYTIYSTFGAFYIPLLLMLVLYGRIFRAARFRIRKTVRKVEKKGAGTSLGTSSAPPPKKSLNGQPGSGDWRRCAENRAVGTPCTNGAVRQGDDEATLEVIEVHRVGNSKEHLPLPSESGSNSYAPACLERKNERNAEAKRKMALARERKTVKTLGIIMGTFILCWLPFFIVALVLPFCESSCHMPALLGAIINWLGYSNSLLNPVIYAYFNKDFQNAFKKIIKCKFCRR
From the text: High affinity for the serotonin 5-HT1A receptor was established by testing the claimed compound's ability to displace [^3 H] 8-OHDPAT (dipropylaminotetralin) from the ^5 -HT1A serotonin receptor following the procedure of Hall et al., J. Neurochem. 44, 1685 (1985). […] The anxiolytic and antidepressant activity of these agents are believed to be, at least partially, due to their 5-HT1A receptor affinity (Vander Maclen et al., Eur. J. Pharmacol. 1986, 129 (1-2) […] and Lucki, J. Clin. Psychiat. 1992, 52, 24-31).

[4] = system: 3H 5-hydroxytryptamine uptake; test: inhibition of 3H 5-hydroxytryptamine uptake, crude synaptosomes from rat frontal cortex (modified Wood and Willie); assay type: biochemical; conditions: nonspecific uptake in presence of 10 μM fluoxetine, read-out: Inhibition 5-HT Uptake IC50
Procedure: Inhibition of ^3 H 5-hydroxytryptamine uptake was established using a modification of the procedure of Wood and Willie, J. Neurochem. 37:795, 1981. Crude synaptosomes prepared from rat frontal cortex were utilized and nonspecific uptake was defined as that occurring in the presence of excess (10 μM) fluoxetine.

[5] = molecular target: T2, 5-HT1A serotonin receptor; conditions: reference agents; cited from earlier work
[6] = cited from earlier work

T1 sequence (P61169 whole entry): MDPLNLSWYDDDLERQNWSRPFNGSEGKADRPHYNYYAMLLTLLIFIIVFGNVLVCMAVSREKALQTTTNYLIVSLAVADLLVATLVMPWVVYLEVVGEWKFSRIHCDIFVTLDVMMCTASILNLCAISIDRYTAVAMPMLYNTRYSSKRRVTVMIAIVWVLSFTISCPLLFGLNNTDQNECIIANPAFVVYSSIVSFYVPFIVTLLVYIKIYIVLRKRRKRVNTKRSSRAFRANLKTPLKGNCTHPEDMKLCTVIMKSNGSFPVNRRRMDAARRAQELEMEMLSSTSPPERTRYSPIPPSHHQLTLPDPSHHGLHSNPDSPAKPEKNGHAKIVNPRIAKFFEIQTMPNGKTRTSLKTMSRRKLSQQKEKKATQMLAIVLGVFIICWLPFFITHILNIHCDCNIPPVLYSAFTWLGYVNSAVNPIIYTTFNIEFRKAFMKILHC

Row | Structure (SMILES) | pIC50 [2] | pIC50 [3] | further results
1 | COc1ccc2[nH]cc(CCNCC3COc4ccccc4O3)c2c1 (centres unmarked) | – | – | partial agonist activity at 5-HT1A receptors (in words) [1]: partial agonist activity at 5-HT1A receptors
2 | c1ccc2c(CCCCNC[C@H]3COc4cc5c(cc4O3)OCO5)c[nH]c2c1 [Example 1, [(6,7-Dihydro-1,3-dioxolo[4,5-g][1,4]benzodioxin-6-yl)methyl]-[4-(1H-indol-3-yl)-butyl]-amine] | 6.94 | 8.25 | –
3 | COc1ccc2c(c1)O[C@@H](CNCCCCc1c[nH]c3ccccc13)CO2 [Example 2, [4-(1H-Indol-3-yl)-butyl]-(7-methoxy-2,3-dihydro-benzo[1,4]dioxin-2-ylmethyl)amine] | 7.09 | 8.24 | –
4 | Oc1ccc2c(c1)OC(CNCCCCc1c[nH]c3ccccc13)CO2 (centres unmarked) [Example 3, 3-{[4-(1H-Indol-3-yl)-butylamino}-methyl}-2,3-dihydro-benzo[1,4]dioxin-6-ol] | 8.89 | 8.22 | –
5 | c1ccc(COc2ccc3[nH]cc(CCCNCC4COc5ccccc5O4)c3c2)cc1 (centres unmarked) [Example 4, [3-(5-Benzyloxy-1H-indol-3-yl)-propyl]-(2,3-dihydro-benzo[1,4]dioxin-2-ylmethyl)-amine] | 6.99 | 8.09 | –
6 | Oc1ccc2[nH]cc(CCCNCC3COc4ccccc4O3)c2c1 (centres unmarked) [Example 5, 3-{3-[(2,3-Dihydro-benzo[1,4]dioxin-2-ylmethyl)-amino]-propyl}-1H-indol-5-o] | 8.19 | 10.22 | pIC50 [4]: 7.28
7 | COc1ccc2c(c1)OC(CNCCCc1c[nH]c3ccc(O)cc13)CO2 (centres unmarked) [Example 6, 3-{3-[(7-Methoxy-2,3-dihydro-benzo[1,4]dioxin-2-ylmethyl)-amino]-propyl}-1H-indol-5-ol] | 7.35 | 8.57 | –
8 | COc1ccc2c(c1)OC(CN(C)CCCc1c[nH]c3ccc(OC)cc13)CO2 (centres unmarked) [Example 7, (7-Methoxy-2,3-dihydro-benzo[1,4]dioxin-2-ylmethyl)-[3-(5-methoxy-1H-indol-3-yl)-propyl]-methyl-amine] | 5.91 | 8.17 | –
9 | Oc1ccc2c(c1)OC(CNCCCc1c[nH]c3ccc(O)cc13)CO2 (centres unmarked) [Example 8, 3-{3-[(7-Hydroxy-2,3-dihydro-benzo[1,4]dioxin-2-ylmethyl)-amino]-propyl}-1H-indol-5-ol] | 9.21 | 9.46 | –
10 | COc1ccc2c(c1)OC(CNCCCCc1c[nH]c3ccc(OC)cc13)CO2 (centres unmarked) [Example 9, (7-Methoxy-2,3-dihydro-benzo[1,4]dioxin-2-ylmethyl)-[4-(5-methoxy-1 H-indol-3-yl)-butyl]-amine] | 7.19 | 9.10 | pIC50 [4]: 6.13
11 | COc1ccc2[nH]cc(CCCCNCC3COc4ccc(O)cc4O3)c2c1 (centres unmarked) [Example 10, 3-{[4-(5-Methoxy-1H-indol-3-yl)-butylamino]methyl}-2,3-dihydrobenzo[1,4]dioxin-6-ol] | 9.41 | 8.71 | –
12 | CS(=O)(=O)Nc1ccc2c(c1)OC(CNCCCCc1c[nH]c3ccccc13)CO2 (centres unmarked) [Example 11, N-(3-{[4-(1 H-Indol-3-yl)-butylamino]-methyl}-2,3-dihydro-benzo[1,4]dioxin-6-yl)-methanesulfonamide] | 8.63 | 8.41 | pIC50 [4]: 7.87
13 | COc1ccc2[nH]cc(CCCNCC3COc4ccccc4O3)c2c1 (centres unmarked) [Example 12, (2.3-Dihydro-benzo[1,4]dioxin-2-ylmethyl)-[3-(5-methoxy-1H-indol-3-yl)-propyl]-amine] | 8.81 | 10.00 | pIC50 [4]: 5.62
14 | Fc1ccc2[nH]cc(CCCNCC3COc4ccccc4O3)c2c1 (centres unmarked) [Example 13, (2,3-Dihydro-benzo[1,4]dioxin-2-ylmethyl)-[3-(5-fluoro-1H-indol-3-yl)-propyl]-amine] | 8.09 | 9.92 | pIC50 [4]: 6.81
15 | COc1ccc2[nH]cc(CCCCNCC3COc4ccc(NS(C)(=O)=O)cc4O3)c2c1 (centres unmarked) [Example 14, N-(3-{[4-(5-Methoxy-1 H-indol-3-yl)-butylamino]-methyl}-2,3-dihydrobenzo[1,4]dioxin-6-yl)-methanesulfonamide] | 8.32 | 9.09 | –
16 | Oc1ccc2c(c1)OC(CNCCCc1c[nH]c3ccccc13)CO2 (centres unmarked) [Example 15, 3-{[4-(1H-Indol-3-yl)-propylamino]-methyl}-2,3-dihydro-benzo[1,4]dioxin-6-ol] | 9.52 | 8.31 | –

Row | Structure (SMILES) | pIC50 [2] | pIC50 [3] | further results
17 | c1ccc2c(c1)OCC(CNCCCCc1c[nH]c3ccccc13)O2 (centres unmarked) [Example 16, (2,3-Dihydro-benzo[1,4]dioxin-2-ylmethyl)-[4-(1H-indol-3-yl)-butyl]-amine] | 7.87 | 8.31 | –
18 | c1ccc2c(c1)OCC(CNCCCc1c[nH]c3ccccc13)O2 (centres unmarked) [Example 17, (2.3-Dihydro-benzo[1,4]dioxin-2-ylmethyl)-[3-(1H-indol-3-yl)-propyl]-amine] | 8.46 | 8.42 | –
19 | Fc1ccc2[nH]cc(CCCCNCC3COc4ccccc4O3)c2c1 (centres unmarked) [Example 18, (2,3-Dihydro-benzo[1,4]dioxin-2-ylmethyl)-[4-(5-fluoro-1H-indol-3-yl)-butyl]-amine] | 7.73 | 8.40 | –
20 | COc1ccc2c(c1)OC(CNCCCCc1c[nH]c3ccc(F)cc13)CO2 (centres unmarked) [Example 19, [4-(5-Fluoro-1H-indole-3-yl)-butyl]-(7-methoxy-2,3-dihydro-benzo[1,4]dioxin-2-ylmethyl)-amine] | 7.14 | 8.26 | –
21 | Oc1ccc2c(c1)O[C@@H](CNCCCc1c[nH]c3ccccc13)CO2 [Example 20, 3-{[3-(1H-Indol-3-yl)-propylamino]methyl}-2,3-dihydro-benzo[1,4]dioxin-6-ol] | 9.89 | 8.23 | –
22 | CS(=O)(=O)Nc1ccc2c(c1)O[C@@H](CNCCCc1c[nH]c3ccccc13)CO2 [Example 21, N-(3-{[3-(1H-Indol-3-yl)-propylamino]methyl}-2,3-dihydro-benzo[1,4]dioxin-6-yl)-methanesulfonamide] | 9.12 | 8.24 | –
23 | Cn1cc(CCCCNCC2COc3ccccc3O2)c2cc(F)ccc21 (centres unmarked) [Example 22, (2,3-Dihydro-benzo[1,4]dioxin-2-ylmethyl)-{4-[5-fluoro-1-methyl-1H-(indole-3-yl)]-butyl}-amine] | 7.30 | 7.80 | –
24 | COc1ccc2[nH]cc(CCCCNCC3COc4ccccc4O3)c2c1 (centres unmarked) [Example 23, (2,3-Dihydro-benzo[1,4]dioxin-2-ylmethyl)-[4-(5-methoxy-1H-indol-3-yl)-butyl]-amine] | 8.18 | 9.25 | –
25 | Cn1cc(CCCNCC2COc3ccc(NS(C)(=O)=O)cc3O2)c2ccccc21 (centres unmarked) [Example 24, N-(3-{[3-(1-Methyl-1H-indol-3-yl)-propylamino]-methyl}-2,3-dihydrobenzo[1,4]dioxin-6-yl)-methanesulfonamide] | 7.69 | 8.03 | –
26 | O=C1CC2(CCCC2)CC(=O)N1CCCCN1CCN(c2ncccn2)CC1 [buspirone] | – | – | affinity for the 5-HT1A serotonin receptor subtype (in words) [5]: potent affinity
27 | CNCCC(Oc1ccc(C(F)(F)F)cc1)c1ccccc1 (centres unmarked) [fluoxetine, reference compound] | – | – | pIC50 [4]: 7.15
28 | CC1(C)CC(=O)N(CCCCN2CCN(c3ncccn3)CC2)C(=O)C1 [gepirone] | – | – | affinity for the 5-HT1A serotonin receptor subtype (in words) [5]: potent affinity; anxiolytic and antidepressant activity in clinical trials (in words) [6]: demonstrated both anxiolytic and antidepressant activity in clinical trials
29 | CN(C)CCCN1c2ccccc2CCc2ccccc21 [imipramine, reference compound] | – | – | pIC50 [4]: 6.92
30 | O=C1c2ccccc2S(=O)(=O)N1CCCCN1CCN(c2ncccn2)CC1 [ipsapirone] | – | – | affinity for the 5-HT1A serotonin receptor subtype (in words) [5]: potent affinity; anxiolytic and antidepressant activity in clinical trials (in words) [6]: demonstrated both anxiolytic and antidepressant activity in clinical trials
31 | CN(C)C/C=C(/c1ccc(Br)cc1)c1cccnc1 [zimelidine, reference compound] | – | – | pIC50 [4]: 6.62
